Columns and labels:
Format in all cases: cell-based
sAC^KO mouse melanocytes [1] = assay: LysoSensor Yellow/Blue DND-160 organelle pH assay; conditions: 30 μM, 4 hours
Method: (§1) To determine the pH of the sAC^KO and sAC^FF melanocytes the pH-sensitive vital dye LysoSensor Yellow/Blue DND-160 (Bellono et al. Sci Rep., 6:26570 (2016)) was used. Briefly, cells were incubated with 1 μM LysoSensor DND-160 (Invitrogen) for 5 minutes at 37° C. Lysosensor was excited at 405 nm and its emission detected at 417-483 nm (W1) and 490-530 nm (W2). The ratio of emissions (W1/W2) in Lysosensor-stained puncta was assigned to a pH value based on a calibration curve generated for each experiment using solutions containing 125 mM KCl, 25 mM NaCl, 24 μM monensin, and varying concentrations of MES to adjust the pH to 4, 4.5, 5.0, 5.5, 6.0, 6.5, 7.0, 7.5. The fluorescence ratio was linear for pH 5.0-7.0.
as §1, with “The effect” for “To determine the pH”, “pharmacologic inhibition of sAC was examined using” for “the sAC^KO and sAC^FF melanocytes”, “vial” for “vital”, “assay, described above.” for “(Bellono et al. Sci Rep., 6:26570 (2016)) was used.”, “Briefly, cultured sAC^FF melanocytes were treated for 4 hours with 30 μM KH7, 30 μM LRE1, or control (untreated). The” for “Briefly,”

sAC^FF mouse melanocytes [2] = assay: LysoSensor Yellow/Blue DND-160 organelle pH assay; conditions: 30 μM, 4 hours
Method: as §1
as §1, with “The effect” for “To determine the pH”, “pharmacologic inhibition of sAC was examined using” for “the sAC^KO and sAC^FF melanocytes”, “vial” for “vital”, “assay, described above.” for “(Bellono et al. Sci Rep., 6:26570 (2016)) was used.”, “Briefly, cultured sAC^FF melanocytes were treated for 4 hours with 30 μM KH7, 30 μM LRE1, or control (untreated). The” for “Briefly,”

sAC^KO mouse melanocytes [3] = assay: Cellular eumelanin content; conditions: 96 hours
Method: (§2) FIGS. 15A-15J provide the results of experiments analyzing the effect of sAC activity on melanin production. FIG. 15A is a graph illustrating the cellular eumelanin and pheomelanin content in sAC^FF (FF) and sAC^KO (KO) mouse melanocytes. Numbers above bars represent the ratio of pheomelanin to eumelanin. Average of triplicate determinations. FIG. 15B is a graph illustrating the cellular eumelanin content of sAC^FF and sAC^KO mouse melanocytes grown for 96 hours in the absence (−, DMSO) or presence of KH7 (+, 30 μM). Average of triplicate determinations. FIG. 15C is a graph illustrating the fold over baseline cellular eumelanin level of human melanocytes (n=8) treated with KH7 (30 μM) or vehicle (DMSO) for 48 hours. All assays performed in triplicate. Students t-test **P<0.01, ****P<0.0001. FIG. 15D is images of cell pellets of sAC^FF and sAC^KO mouse melanocytes. FIG. 15E is a graph of the melanin levels of pairs of sAC^FF and sAC^KO mouse melanocytes. FIGS. 15F and 15G are images of cell pellets of sAC^FF mouse melanocytes grown in the absence (DMSO, FIGS. 15G and 15F, left panels) or presence of KH7 (FIG. 15G, 30 μM, right panel) or LRE1 (FIG. 15F, 50 μM, right panel) for 96 hours. FIG. 15H is images of cell pellets of human melanocytes (C226, C38) treated with vehicle control (DMSO, left) or KH7 (30 μM, right) for 48 hours. FIG. 15I is images of cell pellets of human melanocytes (C226) treated with vehicle control (DMSO, left) or ESl-09 (10 μM, right) for 48 hours. FIG. 15J is a graph illustrating the fold over baseline cellular (eumelanin) level of human melanocytes treated with ESl-09 (10 μM) or vehicle (DMSO) for 48 hours (n=3, distinct human cell lines). For FIGS. 15E and 15J Students t-test, *p<0.05, **p<0.01, ****p<0.0001.

sAC^FF mouse melanocytes [4] = assay: Cellular eumelanin content; conditions: KH7 30 μM or LRE1 50 μM, 96 hours
Method: as §2

CC(Sc1nc2ccccc2[nH]1)C(=O)N/N=C/c1cc(Br)ccc1O (stereo not shown) [KH7]
pH of LysoSensor-visualized organelles (sAC^KO mouse melanocytes [1]): had no effect | pH of LysoSensor-visualized organelles (sAC^FF mouse melanocytes [2]): induced an alkaline pH shift | eumelanin levels (sAC^KO mouse melanocytes [3]): had no effect | eumelanin levels (sAC^FF mouse melanocytes [4]): increased eumelanin levels
